Test results: ChEMBL document CHEMBL1201862, “PubChem BioAssay data set” (2004)
Activity calls are given as the source filed them.

Columns and labels:
[1] = system: HeLa; assay: HeLa cell cytotoxicity, dose response, cytotoxicity control, 24 h, cherry-picked samples (AID 504726); type: functional, cell-based; settings: Homo sapiens;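 further: potency for cytotoxicity as loss of luminescence signal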
[2] = molecular target: T1, RNA-binding protein pos-1 (Caenorhabditis elegans, UniProt G5EF15); assay: inhibitors of POS-1/mex-3 RNA binding, dose response, biochemical, fluorescence polarization (AID 1964);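 further: purified POS-1 fused to maltose binding protein made in E. coli; potency of compounds blocking POS-1 binding to fluorescent RNA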
T1 sequence (G5EF15 whole entry): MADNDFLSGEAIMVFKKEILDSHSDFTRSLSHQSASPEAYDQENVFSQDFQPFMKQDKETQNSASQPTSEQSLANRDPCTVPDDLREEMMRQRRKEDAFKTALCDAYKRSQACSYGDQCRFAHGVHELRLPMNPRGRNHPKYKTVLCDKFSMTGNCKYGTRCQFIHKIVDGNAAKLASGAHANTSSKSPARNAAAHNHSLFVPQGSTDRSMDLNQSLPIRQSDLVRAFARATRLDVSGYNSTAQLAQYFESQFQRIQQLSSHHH

[3] = molecular target: T2, Zinc finger protein mex-5 (Caenorhabditis elegans, UniProt Q9XUB2); assay: MEX-5/TCR-2 RNA interaction inhibitors, dose response, biochemical, C. elegans, fluorescence polarization (AID 1960)
T2 sequence (Q9XUB2 whole entry): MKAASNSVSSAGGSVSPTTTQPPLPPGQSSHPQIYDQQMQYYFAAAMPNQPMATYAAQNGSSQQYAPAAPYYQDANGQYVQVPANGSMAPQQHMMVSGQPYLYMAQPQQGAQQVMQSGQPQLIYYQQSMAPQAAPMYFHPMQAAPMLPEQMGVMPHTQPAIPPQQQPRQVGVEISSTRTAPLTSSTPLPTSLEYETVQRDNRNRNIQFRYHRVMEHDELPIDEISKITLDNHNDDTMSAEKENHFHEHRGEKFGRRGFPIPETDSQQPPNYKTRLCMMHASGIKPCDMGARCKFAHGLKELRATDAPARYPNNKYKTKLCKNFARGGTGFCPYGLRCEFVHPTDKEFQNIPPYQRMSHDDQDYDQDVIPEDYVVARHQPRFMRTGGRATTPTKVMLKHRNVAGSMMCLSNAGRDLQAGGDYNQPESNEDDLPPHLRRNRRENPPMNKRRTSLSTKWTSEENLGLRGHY

[4] = system: Escherichia coli; assay: microbe, parasite or virus in culture
[5] = system: Escherichia coli; assay: microbe, parasite or virus in culture; remark: listed apart in the source
[6] = Luminescence Cell-Based Dose Retest to Confirm Inhibitors of Cancer Stem Cells. [Related pubchem assays (depositor defined):AID2717, AID2721]; type: functional; settings: Homo sapiens
[7] = cytotoxicity in HMLE control line with eGFP shRNA, dose response, counter-screen for HMLE_sh_ECad selective toxicity project, cell-based, HMLE_sh_eGFP, luminescence (AID 463074); type: functional, Homo sapiens;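 further: HMLE human mammary epithelial cells expressing control shRNA against eGFP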
[8] = molecular target: T3, Cytochrome P450 1A2 (Homo sapiens, UniProt P05177);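 further: PubChem cytochrome P450 panel assay, CYP1A2 panel member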
T3 sequence (P05177 whole entry): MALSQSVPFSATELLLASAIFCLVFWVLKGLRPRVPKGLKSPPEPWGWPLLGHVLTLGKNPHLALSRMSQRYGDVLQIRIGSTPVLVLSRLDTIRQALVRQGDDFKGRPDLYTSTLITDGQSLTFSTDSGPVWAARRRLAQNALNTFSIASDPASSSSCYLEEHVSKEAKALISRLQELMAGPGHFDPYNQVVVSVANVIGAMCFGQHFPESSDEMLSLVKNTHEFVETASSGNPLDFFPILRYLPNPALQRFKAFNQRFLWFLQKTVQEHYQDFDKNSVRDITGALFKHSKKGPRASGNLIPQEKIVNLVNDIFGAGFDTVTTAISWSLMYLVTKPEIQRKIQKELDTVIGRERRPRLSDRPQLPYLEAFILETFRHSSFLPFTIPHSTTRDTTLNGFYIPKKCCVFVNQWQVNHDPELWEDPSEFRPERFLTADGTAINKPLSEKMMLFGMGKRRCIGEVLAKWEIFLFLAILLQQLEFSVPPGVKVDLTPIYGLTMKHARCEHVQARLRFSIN

[9] = molecular target: Cytochrome P450 3A4 (Homo sapiens, UniProt P08684);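 further: CYP3A4 tested as one member of a cytochrome P450 panel screen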
[10] = molecular target: Cytochrome P450 2C19 (Homo sapiens, UniProt P33261); assay: Cytochrome panel assay with activity outcomes. Panel member name: p450-cyp2c19 Compounds with AC50 equal or less than 10 uM are considered active; type: functional
Chain of Cytochrome P450 2C19 (P33261 whole entry): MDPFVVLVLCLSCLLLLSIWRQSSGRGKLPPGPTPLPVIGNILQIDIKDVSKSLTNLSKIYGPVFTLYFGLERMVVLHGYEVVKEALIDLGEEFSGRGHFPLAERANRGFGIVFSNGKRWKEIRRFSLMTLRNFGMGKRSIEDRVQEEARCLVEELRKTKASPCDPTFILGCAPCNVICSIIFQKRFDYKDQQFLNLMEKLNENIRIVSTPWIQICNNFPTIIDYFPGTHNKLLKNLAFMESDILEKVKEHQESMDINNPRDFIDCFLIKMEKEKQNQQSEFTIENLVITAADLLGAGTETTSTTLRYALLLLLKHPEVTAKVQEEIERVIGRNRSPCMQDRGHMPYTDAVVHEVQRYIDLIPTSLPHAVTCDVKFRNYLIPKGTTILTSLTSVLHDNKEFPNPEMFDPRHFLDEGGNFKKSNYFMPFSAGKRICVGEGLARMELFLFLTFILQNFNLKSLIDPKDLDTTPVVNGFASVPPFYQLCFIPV

Chain of Cytochrome P450 3A4 (P08684 whole entry): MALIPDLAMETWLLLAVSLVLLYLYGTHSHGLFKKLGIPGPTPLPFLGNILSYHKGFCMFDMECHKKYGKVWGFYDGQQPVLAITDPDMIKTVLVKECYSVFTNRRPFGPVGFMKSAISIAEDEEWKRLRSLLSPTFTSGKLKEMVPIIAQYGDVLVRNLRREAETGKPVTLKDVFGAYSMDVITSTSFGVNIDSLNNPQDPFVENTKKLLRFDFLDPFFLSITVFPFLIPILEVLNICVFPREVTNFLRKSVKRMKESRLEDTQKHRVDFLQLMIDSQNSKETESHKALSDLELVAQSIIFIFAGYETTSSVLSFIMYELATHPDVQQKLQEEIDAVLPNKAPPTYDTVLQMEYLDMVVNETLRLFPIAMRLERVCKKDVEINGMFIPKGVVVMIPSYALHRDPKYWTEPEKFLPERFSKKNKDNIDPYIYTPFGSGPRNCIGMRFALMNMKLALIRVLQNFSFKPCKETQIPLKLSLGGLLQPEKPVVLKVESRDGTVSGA

**Q.** Which AC50 [1] does the source give for `CN(C)C1C(=O)C(C(N)=O)=C(O)C2(O)C(O)=C3C(=O)c4c(O)cccc4C(C)(O)C3C(O)C12` (stereo not given) here?
**A.** The AC50 was 54.2 µM (active).

**Q.** And the EC50 [2]?
**A.** Its EC50 is 65.8 µM (active).

**Q.** What about the EC50 [3] of the same compound?
**A.** Its EC50 is 29.9 µM (inconclusive).

**Q.** And the AC50 [4]?
**A.** The AC50 was 14.9 µM (active).

**Q.** What about the AC50 [5] of the same compound?
**A.** Its AC50 is < 0.3 µM (active).

**Q.** What does the source list for `O=C(NCCCn1ccnc1)c1cccc(S(=O)(=O)N2CCCCCC2)c1`?
**A.** AC50 [6]: 18.9 µM (active); AC50 [7]: 27.2 µM (active)

**Q.** Which AC50 [8] does the source give for `O=C(O)CNC(=O)c1ccc([As](=O)(O)O)cc1` here?
**A.** The AC50 was “inactive”.

**Q.** And the AC50 [9]?
**A.** The AC50 was “inactive”.

**Q.** What about the AC50 [10] of the same compound?
**A.** The AC50 was “inactive”.
